Experimental data reported in patent publication US20030153551A1, “Method for treating ocular neovascular diseases” (priority 2002, published 2003).

Legend:
[1] = test system: retinal neovascularization; assay: Oxygen-induced ischemic retinopathy in mice, lectin staining of retinal endothelial cells with image analysis; format: in vivo, C57/BL6J mice
Method: Ophthalmol. Vis. […] Vehicle (1% DMSO) or vehicle containing various concentrations of the drug (volume=10 μl per gram body weight) is placed in the stomach by gavage.
Some slides are counterstained with hematoxyln and all were mounted with Cytoseal.

[2] = test system: endothelial cells of mature vessels; assay: Effect on mature retinal vessels of adult mice, lectin staining with image analysis; format: in vivo, Adult C57BL6J mice; details: 600 mg/kg by gavage once a day, 5 days
Method: After 5 days of treatment, the mice are sacrificed, eyes are rapidly removed and frozen in optimum cutting temperature embedding compound (OCT; Miles Diagnostics, Elkhart, Ind.) or fixed in 10% phosphate-buffered formalin and embedded in paraffin. Adult C57BL6J mice are also treated by gavage with the drug or vehicle and after 5 days, they are sacrificed and their eyes are processed for frozen or paraffin sections.

[3] = test system: retinal vascular development; assay: Retinal vascular development in neonatal mice, fluorescein-dextran perfused retinal flat mounts; format: in vivo, newborn C57/BL6J mice; details: daily subcutaneous 100 mg/kg
Method: Litters of newborn C57/BL6J mice (neonatal mice) are divided into treatment and control groups which received daily subcutaneous injections of 100 mg/kg of the drug or vehicle, respectively. At 7 or 10 days of age, the mice are anesthetized with ether, and perfused with 1 ml of phosphate-buffered saline containing 50 mg/ml of fluorescein-labeled dextran (2×10^6 average mw, Sigma, St. Louis, Mo.) as described by Tobe et al., Evolution of Neovascularization in Mice with Overexpression of VEGF in Photoreceptors, Invest. Ophthalmol. Vis. Sci. 39, 180-188 (1998). The eyes are removed and fixed for 1 hour in 10% phosphate-buffered formalin. The cornea and lens are removed and the entire retina is carefully dissected from the eyecup. Radially cuts are made from the edge of the retina to the equator in all 4 quadrants, and the retina is flat-mounted in Aquamount with photoreceptors facing upward. […] Image-Pro™ Plus is used to measure the distance from the center of the optic nerve to the leading front of developing retinal vessels in each quadrant and the mean is used as a single experimental value.

[4] = test system: choroidal neovascularization; assay: Laser-induced choroidal neovascularization in mice, lectin staining with integrated area measurement; format: in vivo, C57BL/6J mice; details: 400 mg/kg/day orally by gavage
Method: C57BL/6J mice are treated in accordance with the Association for Research in Vision and Ophthalmology resolution for the treatment of animals. […] J Path, in press. Briefly, 4 to 5 week old male C57BL/6J mice are anesthetized with ketamine hydrochloride (100 mg/kg body weight) and the pupils are dilated with 1% tropicamide. Three burns of krypton laser photocoagulation (100 μm spot size, 0.1 seconds duration, 150 mW) are delivered to each retina using the slit lamp delivery system of a Coherent Model 920 Photocoagulator and a hand held cover slide as a contact lens. Burns are performed in the 9, 12, and 3 o'clock positions of the posterior pole of the retina. Production of a bubble at the time of laser, which indicates rupture of Bruch's membrane, is an important factor in obtaining CNV, so only mice in which a bubble is produced for all three burns are included. […] After 14 days, the mice are killed with an overdose of pentobarbital sodium, and their eyes are rapidly removed and frozen in optimal cutting temperature embedding compound (OCT). […] Slides are rinsed with 0.05M TBS and incubated 2 hours at 37° C. with biotinylated lectin. […] After a 10 minute incubation in 0.05 M Tris buffer, pH 7.6, slides are developed in Histomark Red (Kirkegaard and Perry) to give a red reaction product, and mounted with Cytoseal (Stephens Scientific, Riverdale, N.J.). Some slides are counterstained with Contrast Blue (Kirkegaard and Perry).
For each lesion, area measurements are made for all sections on which some of the lesion appeared and added together to give the integrated area measurement. Values are averaged to give one experimental value per mouse. A 2-sample t-test for unequal variances is performed to compare the log mean integrated area between treatment and control mice.

CO[C@@H]1[C@H](N(C)C(=O)c2ccccc2)C[C@H]2O[C@]1(C)n1c3ccccc3c3c4c(c5c6ccccc6n2c5c31)C(=O)NC4 [NBS, N-benzoyl-staurosporine]
endothelial cell staining on and in the retinas by image analysis versus vehicle-treated mice ([1]; 60 mg/kg once a day): significantly less
clumps of neovascularization on the surface of the retina versus vehicle-treated control mice ([1]; 60 mg/kg twice a day, gavage): less than clumps in the retina of the vehicle-treated control mice
clumps of neovascularization on the surface of the retina versus vehicle-treated control mice ([1]; 300 mg/kg twice a day, gavage): less than clumps in the retina of the vehicle-treated control mice
endothelial cell staining on and in the retinas by image analysis versus vehicle-treated mice ([1]; 600 mg/kg once a day): significantly less
endothelial cell staining on the surface and within the retina compared to vehicle-treated mice ([1]; 600 mg/kg once a day for 5 days, gavage): dramatic decrease
total area of endothelial staining in the retina or appearance of retinal vessels compared to vehicle-treated mice [2]: no difference
toxicity to endothelial cells of mature vessels [2]: not toxic
difference in distance from the optic nerve to the vascular front between treated and control mice ([3]; at 7 and 10 days of age): statistically significant
extent of retinal vessels toward the periphery ([3]; at 7 days of age): only extend slightly more than halfway to the periphery
extent of superficial capillary bed ([3]; at 10 days of age): has not yet reached the edge of the retina
integrated area of lectin staining per lesion ([4]; 14 days after laser, vehicle 0.0695621±0.0073960 mm^2, p=0.004): 0.009018±0.001754 mm^2
appearance of overlying retinal vessels in eyes of treated mice ([4]; two weeks after laser): appear normal
choroidal neovascularization at the site of each laser-induced rupture of Bruch's membrane ([4]; two weeks after laser): very little if any choroidal neovascularization
